Key:
Assay type in all cases: physicochemical
[1] = Dissolution profile, flow through cell in FeSSIF / FaSSIF (Example 16); settings: micronized samples
Method: Prior to the measurements, the samples were micronized using a jet mill (MC DECJET 30) under nitrogen, with a pressure of 4.5 Bar for the injector and 4.0 Bar grinding pressure.
Dissolution rates of the drug substance were then determined using a flow through cell (FTC) from Sotax. All experiments were conducted in triplicates.
Then, the respective medium (FaSSIF or FeSSIF) was pumped through the cell with a pump rate of 2 mL/min for a total time of 14 minutes, resulting in a total volume of 28 mL. This volume was collected in time increments of 2 minutes, leading to 7 collected fractions with 4 mL each. The drug substance concentration of each fraction was determined by HPLC (external standard).

[2] = Hygroscopy, dynamic vapour sorption (DVS) isotherms (Example 15)
Method: Water sorption isotherms were determined using a DVS Resolution gravimetric sorption analyzer (London, UK), or a DVS Intrinsic instrument (Surface measurement Systems). The sample was dried for 1000 minutes at 0% relative humidity (R.H.). Afterwards the dry weight was recorded. […] The equilibrium criterion for each relative humidity set point was 0.002% per minute relative mass change as a function of time.

[3] = Solubility of cholinate vs free acid and other salts, shake-flask method (Example 14)
Method: (§1) Preparation of FaSSIF (Fasted State Simulated Intestinal Fluid) blank solution: 4.2 g NaOH, 44.7 g NaH2PO4*2 H2O, and 61.86 g NaCl were dissolved in approximately 9.5 L demineralized water. Then, the pH of this solution was adjusted to 6.50+/−0.05 using HCl or NaOH, respectively. In the last step, the final volume was adjusted to 10.0 L by the addition of demineralized water.
Preparation of the final FaSSIF solution: 4.48 g SIF (Simulated Intestinal Fluids) powder (provider: biorelevant.com, Product code: FFF01 (May 2022)) were dissolved in approximately 500 mL FaSSIF blank solution, then the final volume was adjusted to 2.0 L by the addition of FaSSIF blank solution. After 2 hours, the solution was considered to be ready to use and was used within 48 hours.
as §1, with “FeSSIF (Fed” for “FaSSIF (Fasted”, “40.4” for “4.2”, “118.74” for “44.7”, “NaCl,” for “NaH2PO4*2 H2O,”, “82.4 mL glacial acetic acid” for “61.86 g NaCl”, “5.00+/−0.05” for “6.50+/−0.05”
Preparation of the final FeSSIF solution: 22.4 g SIF powder (provider: biorelevant.com, Product code: FFF01 (May 2022)) were dissolved in approximately 500 mL FeSSIF blank solution, then the final volume was adjusted to 2.0 L by the addition of FeSSIF blank solution. The solution was considered to be ready to use immediately after manufacturing and was used within 48 hours.

Row | Compound | Change in mass [%], Desorption ([2]; 0% Relative humidity) [%] | Change in mass [%], Sorption ([2]; 0% Relative humidity) [%] | Change in mass [%], Desorption ([2]; 10% Relative humidity) [%] | Change in mass [%], Sorption ([2]; 10% Relative humidity) [%] | Change in mass [%], Desorption ([2]; 20% Relative humidity) [%] | Change in mass [%], Sorption ([2]; 20% Relative humidity) [%] | Change in mass [%], Desorption ([2]; 30% Relative humidity) [%] | Change in mass [%], Sorption ([2]; 30% Relative humidity) [%] | Change in mass [%], Desorption ([2]; 40% Relative humidity) [%] | Change in mass [%], Sorption ([2]; 40% Relative humidity) [%] | Change in mass [%], Desorption ([2]; 50% Relative humidity) [%] | Change in mass [%], Sorption ([2]; 50% Relative humidity) [%] | Change in mass [%], Desorption ([2]; 60% Relative humidity) [%] | Change in mass [%], Sorption ([2]; 60% Relative humidity) [%] | Change in mass [%], Desorption ([2]; 70% Relative humidity) [%] | Change in mass [%], Sorption ([2]; 70% Relative humidity) [%] | Change in mass [%], Desorption ([2]; 80% Relative humidity) [%] | Change in mass [%], Sorption ([2]; 80% Relative humidity) [%] | Change in mass [%], Desorption ([2]; 90% Relative humidity) [%] | Change in mass [%], Sorption ([2]; 90% Relative humidity) [%] | other results
1 | O=C([O-])c1cc(NC(=O)C2(c3ccc(C(F)(F)F)cc3F)CC2)ccc1-c1cnn(C2CCC2)c1.[Na+] [Sodium salt, Sodium 2-(1-cyclobutyl-1H-pyrazol-4-yl)-5-[({1-[2-fluoro-4-(trifluoromethyl)phenyl]cyclopropyl}carbonyl)amino]benzoate] | −3.95 | 0.00 | −0.87 | 0.85 | 0.84 | 1.36 | 1.91 | 1.92 | 3.33 | 2.95 | 5.07 | 7.77 | 7.95 | 11.23 | 11.79 | 15.05 | 16.87 | 20.22 | 26.84 | 30.67 | Dissolution profile, comparison in words [1]: no differences; Change in mass [%], Desorption ([2]; 95% Relative humidity): 42.62%; Change in mass [%], Sorption ([2]; 95% Relative humidity): 42.62%; DVS Dm @ 30% R.H. (Sorption) ([2]; summarized results, 30% R.H.): 1.9%; DVS Dm @ 50% R.H. (Sorption) ([2]; summarized results, 50% R.H.): 5.1%; DVS Dm @ 80% R.H. (Sorption) ([2]; summarized results, 80% R.H.): 20.2%; solubility ([3]; Buffer pH 4.5, 25° C.): 3 mgfree acid/L; solubility ([3]; Buffer pH 7, 25° C.): 421 mgfree acid/L; solubility ([3]; Buffer pH 8, 25° C.): 5075 mgfree acid/L; solubility ([3]; FaSSIF (37° C.) (Fasted State Simulated Intestinal Fluid)): 426 mgfree acid/L; solubility ([3]; FeSSIF (37° C.) (Fed State Simulated Intestinal Fluid)): 14 mgfree acid/L; solubility ([3]; Water, 25° C.): 6176 mgfree acid/L
2 | N=C(N)NCCC[C@H](N)C(=O)O.O=C(O)c1cc(NC(=O)C2(c3ccc(C(F)(F)F)cc3F)CC2)ccc1-c1cnn(C2CCC2)c1 [Arginine Salt, Arginine salt of 2-(1-cyclobutyl-1H-pyrazol-4-yl)-5-[({1-[2-fluoro-4-(trifluoromethyl)phenyl]cyclopropyl}carbonyl)amino]benzoate] | 31.74 | 0.00 | 20.17 | 1.39 | 12.15 | 2.13 | 10.78 | 2.98 | 10.09 | 4.25 | 9.59 | 5.72 | 9.10 | 7.20 | 6.12 | 9.40 | 4.54 | 13.25 | 2.87 | 20.10 | Change in mass [%], Desorption ([2]; 95% Relative humidity): 1.60%; Change in mass [%], Sorption ([2]; 95% Relative humidity): 31.74%
